test system: Human tumor cells; assay: Soft Agar Assay (anchorage-independent growth); assay type: cell-based; conditions: range over 5 tumor cell lines (K ras NIH 3T3, H ras NIH 3T3, HTB 177, A549, HTB 175), read-out: IC50 for each cell line

Row | Structure (SMILES) | IC50 [µM]
1 | NC(=O)N1CCC(CC(=O)N2CCC(C3c4ncc(Br)cc4CCc4cc(Cl)cc(Cl)c43)CC2)CC1 (single isomer, unassigned) [Example 18] | 0.175 to 0.8

test system: Ras-CVLL in COS monkey kidney cells; assay: COS cell assay: geranylgeranylation of Ras-CVLL (Western blot); assay type: cell-based; conditions: not given

Row | Structure (SMILES) | did not block the geranylgeranylation of Ras-CVLL at concentrations up to [µM]
2 | O=C(Cc1cc[n+]([O-])cc1)N1CCC(=C2c3ccc(Cl)c(Br)c3CCc3cc(Br)cnc32)CC1 [Example 2] | > 33

molecular target: T1, geranylgeranyl protein transferase (GGPT) I (Rattus norvegicus, UniProt P53610+Q04631); assay: In vitro enzyme assay: inhibition of geranylgeranyl protein transferase I (Ras-CVLL as acceptor); assay type: biochemical; conditions: Table 2; Ras-CVLL as isoprenoid acceptor
T1 construct: geranylgeranyl protein transferase (GGPT) I were partially purified from rat brain; from tissue; host or cells: rat brain
Description: • 1. In vitro enzyme assays: Inhibition of farnesyl protein transferase and geranylgeranyl protein transferase. Both farnesyl protein transferase (FPT) and geranylgeranyl protein transferase (GGPT) I were partially purified from rat brain by ammonium sulfate fractionation followed by Q-Sepharose (Pharmacia, Inc.) anion exchange chromatography essentially as described by Yokoyama et al (Yokoyama, K., et al., (1991), A protein geranylgeranyltransferase from bovine brain: Implications for protein prenylation specificity, Proc. Natl. Acad. Sci USA 88: 5302-5306, the disclosure of which is incorporated herein by reference thereto). Human farnesyl protein transferase was also expressed in E. coli, using cDNA clones encoding both the a and b subunits. The methods used were similar to those published (Omer, C. et al., (1993), Characterization of recombinant human farnesyl protein transferase: Cloning, expression, farnesyl diphosphate binding, and functional homology with yeast prenyl-protein transferases, Biochemistry 32:5167-5176). Human farnesyl protein transferase was partially-purified from the soluble protein fraction of E. coli as described above. The tricyclic farnesyl protein transferase inhibitors disclosed herein inhibited both human and rat enzyme with similar potencies. Two forms of val^12-Ha-Ras protein were prepared as substrates for these enzymes, differing in their carboxy terminal sequence. One form terminated in cysteine-valine-leucine-serine (Ras-CVLS) the other in cystein-valine-leucine-leucine (Ras-CVLL). Ras-CVLS is a substrate for the farnesyl protein transferase while Ras-CVLL is a substrate for geranylgeranyl protein transferase I. The cDNAs encoding these proteins were constructed so that the proteins contain an amino-terminal extension of 6 histidine residues. Both proteins were expressed in Escherichia coli and purified using metal chelate affinity chromatography. The radiolabelled isoprenyl pyrophosphate substrates, [^3H]farnesyl pyrophosphate and [^3H]geranylgeranyl pyrophosphate, were purchased from DuPont/New England Nuclear. Several methods for measuring farnesyl protein transferase activity have been described (Reiss et al 1990, Cell 62: 81; Schaber et al 1990, J. Biol. Chem. 265: 14701; Manne et al 1990, PNAS 87: 7541; and Barbacid & Manne 1993, U.S. Patent No. 5,185,248). The activity was assayed by measuring the transfer of [^3H]farnesyl from [^3H]farnesyl pyrophosphate to Ras-CVLS using conditions similar to those described by Reiss et al. 1990 (Cell 62: 81) The reaction mixture contained 40 mM Hepes, pH 7.5; 20 mM magnesium chloride; 5 mM dithiothreitol; 0.25 µM [^3H]farnesyl pyrophosphate; […] Q-Sepharose-purified farnesyl protein transferase; the indicated concentration of tricyclic compound or dimethylsulfoxide (DMSO) vehicle control (5% DMSO final); and […] Ras-CVLS in a total volume of […]. The reaction was allowed to proceed for 30 minutes at room temperature and then stopped with 0.5 ml of 4% sodium dodecyl sulfate (SDS) followed by 0.5 ml of cold 30% TCA. Samples were allowed to sit on ice for 45 minutes and precipitated Ras protein was then collected on GF/C filter paper mats using a Brandel cell harvester. Filter mats were washed once with 6% TCA, 2% SDS and radioactivity was measured in a Wallac 1204 Betaplate BS liquid scintillation counter. Percent inhibition was calculated relative to the DMSO vehicle control. The geranylgeranyl protein transferase I assay was essentially identical to the farnesyl protein transferase assay described above, with two exceptions: [^3H]geranylgeranylpyrophosphate replaced farnesyl pyrophosphate as the isoprenoid donor and Ras-CVLL was the protein acceptor. This is similar to the assay reported by Casey et al (Casey, P.J., et al., (1991), Enzymatic modification of proteins with a geranylgeranyl isoprenoid, Proc. Natl. Acad. Sci, USA 88: 8631-8635, the disclosure of which is incorporated herein by reference thereto). • 2. […]

Row | Structure (SMILES) | IC50 [µM]
3 | O=C(Cc1cc[n+]([O-])cc1)N1CCN([C@H]2c3ccc(Cl)cc3CCc3cc(Br)cnc32)CC1 [Example 16B] | > 76
4 | O=C(Cc1cc[n+]([O-])cc1)N1CCN([C@@H]2c3ccc(Cl)cc3CCc3cc(Br)cnc32)CC1 [Example 16A] | > 38
5 | NC(=O)N1CCC(CC(=O)N2CCC(C3c4ncc(Br)cc4CCc4cc(Cl)cc(Cl)c43)CC2)CC1 (single isomer, unassigned) [Example 18] | > 50
6 | O=C(Cc1cc[n+]([O-])cc1)N1CCC(=C2c3ncc(Br)cc3CCc3cc(Cl)cc(Br)c32)CC1 (racemic) [Example 7] | > 300
7 | O=C(Cc1cc[n+]([O-])cc1)N1CCN([C@H]2c3ncc(Br)cc3CCc3cc(Cl)cc(Br)c32)CC1 [Example 11A] | > 66
8 | O=C(Cc1cc[n+]([O-])cc1)N1CCC(C2c3ccc(Cl)c(Br)c3CCc3cc(Br)cnc32)CC1 (single isomer, unassigned) [Example 14A] | > 62
9 | O=C(Cc1cc[n+]([O-])cc1)N1CCC(=C2c3ccc(Cl)c(Br)c3CCc3cc(Br)cnc32)CC1 [Example 2] | > 300
10 | O=C(Cc1cc[n+]([O-])cc1)N1CCC([C@H]2c3ncc(Br)cc3CCc3cc(Cl)cc(Br)c32)CC1 [Example 9] | > 59
11 | NC(=O)N1CCC(CC(=O)N2CCC(C3c4ccc(Cl)c(Br)c4CCc4cc(Br)cnc43)CC2)CC1 (single isomer, unassigned) [Example 13] | > 63
12 | O=C(Cc1cc[n+]([O-])cc1)N1CCN([C@H]2c3ccc(Cl)c(Br)c3CCc3cc(Br)cnc32)CC1 [Example 5] | > 66
